Assay results published in PubChem BioAssay (NCI).
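Dose response: 5 concentrations. Exposure: 48 h. Format: 96-well plates. Endpoint: linear interpolation; highest concentration if not reached. Abbreviation: GI50, concentration required for 50% inhibition of growth. Definition used: TGI = concentration required for complete inhibition of growth.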

Key:
Experiment in all cases: inhibition of tumour cell growth, NCI panel, 48 h
786-0 renal = tested on: 786-0 renal
A498 renal = tested on: A498 renal
A549 NSCLC = tested on: A549 NSCLC
ACHN renal = tested on: ACHN renal
BT-549 breast = tested on: BT-549 breast
CAKI-1 renal = tested on: CAKI-1 renal
CCRF-CEM leukemia = tested on: CCRF-CEM leukemia
COLO 205 colon = tested on: COLO 205 colon
DU-145 prostate = tested on: DU-145 prostate
HCC-2998 colon = tested on: HCC-2998 colon
HCT-116 colon = tested on: HCT-116 colon
HCT-15 colon = tested on: HCT-15 colon
HL-60(TB) leukemia = tested on: HL-60(TB) leukemia
HOP-62 NSCLC = tested on: HOP-62 NSCLC
HOP-92 NSCLC = tested on: HOP-92 NSCLC
HS 578T breast = tested on: HS 578T breast
HT29 colon = tested on: HT29 colon
IGROV1 ovarian = tested on: IGROV1 ovarian
K-562 leukemia = tested on: K-562 leukemia
KM12 colon = tested on: KM12 colon
LOX IMVI melanoma = tested on: LOX IMVI melanoma
MALME-3M melanoma = tested on: MALME-3M melanoma
MCF7 breast = tested on: MCF7 breast
MDA-MB-231 breast = tested on: MDA-MB-231 breast
MDA-MB-435 = tested on: MDA-MB-435
MOLT-4 leukemia = tested on: MOLT-4 leukemia
NCI-H226 lung = tested on: NCI-H226 lung
NCI-H23 lung = tested on: NCI-H23 lung
NCI-H460 lung = tested on: NCI-H460 lung
NCI-H522 lung = tested on: NCI-H522 lung
NCI/ADR-RES ovarian = tested on: NCI/ADR-RES ovarian
OVCAR-3 ovarian = tested on: OVCAR-3 ovarian
OVCAR-4 ovarian = tested on: OVCAR-4 ovarian
OVCAR-5 ovarian = tested on: OVCAR-5 ovarian
OVCAR-8 ovarian = tested on: OVCAR-8 ovarian
PC-3 prostate = tested on: PC-3 prostate
RPMI-8226 leukemia = tested on: RPMI-8226 leukemia
RXF 393 renal = tested on: RXF 393 renal
SF-268 CNS = tested on: SF-268 CNS
SF-295 CNS = tested on: SF-295 CNS
SF-539 CNS = tested on: SF-539 CNS
SK-MEL-2 melanoma = tested on: SK-MEL-2 melanoma
SK-MEL-28 melanoma = tested on: SK-MEL-28 melanoma
SK-MEL-5 melanoma = tested on: SK-MEL-5 melanoma
SK-OV-3 ovarian = tested on: SK-OV-3 ovarian
SN12C renal = tested on: SN12C renal
SNB-19 CNS = tested on: SNB-19 CNS
SNB-75 CNS = tested on: SNB-75 CNS
SR leukemia = tested on: SR leukemia
SW-620 colon = tested on: SW-620 colon
T-47D breast = tested on: T-47D breast
TK-10 renal = tested on: TK-10 renal
U251 CNS = tested on: U251 CNS
UACC-257 melanoma = tested on: UACC-257 melanoma
UACC-62 melanoma = tested on: UACC-62 melanoma
UO-31 renal = tested on: UO-31 renal

Compound: CCCc1c(CC)c(=N)c2ccccc2n1C
- GI50 (786-0 renal): > 100 µM
- TGI (786-0 renal): > 100 µM
- GI50 (A498 renal): 22.8 µM
- TGI (A498 renal): > 100 µM
- GI50 (A549 NSCLC): > 100 µM
- TGI (A549 NSCLC): > 100 µM
- GI50 (ACHN renal): > 100 µM
- TGI (ACHN renal): > 100 µM
- GI50 (BT-549 breast): 44.2 µM
- TGI (BT-549 breast): > 100 µM
- GI50 (CAKI-1 renal): > 100 µM
- TGI (CAKI-1 renal): > 100 µM
- GI50 (CCRF-CEM leukemia): > 100 µM
- TGI (CCRF-CEM leukemia): > 100 µM
- GI50 (COLO 205 colon): > 100 µM
- TGI (COLO 205 colon): > 100 µM
- GI50 (DU-145 prostate): > 100 µM
- TGI (DU-145 prostate): > 100 µM
- GI50 (HCC-2998 colon): > 100 µM
- TGI (HCC-2998 colon): > 100 µM
- GI50 (HCT-116 colon): > 100 µM
- TGI (HCT-116 colon): > 100 µM
- GI50 (HCT-15 colon): > 100 µM
- TGI (HCT-15 colon): > 100 µM
- GI50 (HL-60(TB) leukemia): > 100 µM
- TGI (HL-60(TB) leukemia): > 100 µM
- GI50 (HOP-62 NSCLC): > 100 µM
- TGI (HOP-62 NSCLC): > 100 µM
- GI50 (HOP-92 NSCLC): 30.5 µM
- TGI (HOP-92 NSCLC): > 100 µM
- GI50 (HS 578T breast): > 100 µM
- TGI (HS 578T breast): > 100 µM
- GI50 (HT29 colon): > 100 µM
- TGI (HT29 colon): > 100 µM
- GI50 (IGROV1 ovarian): > 100 µM
- TGI (IGROV1 ovarian): > 100 µM
- GI50 (K-562 leukemia): 51.1 µM
- TGI (K-562 leukemia): > 100 µM
- GI50 (KM12 colon): 39.3 µM
- TGI (KM12 colon): > 100 µM
- GI50 (LOX IMVI melanoma): > 100 µM
- TGI (LOX IMVI melanoma): > 100 µM
- GI50 (MALME-3M melanoma): 42.6 µM
- TGI (MALME-3M melanoma): > 100 µM
- GI50 (MCF7 breast): 30 µM
- TGI (MCF7 breast): > 100 µM
- GI50 (MDA-MB-231 breast): > 100 µM
- TGI (MDA-MB-231 breast): > 100 µM
- GI50 (MDA-MB-435): > 100 µM
- TGI (MDA-MB-435): > 100 µM
- GI50 (MOLT-4 leukemia): > 100 µM
- TGI (MOLT-4 leukemia): > 100 µM
- GI50 (NCI-H226 lung): 93.6 µM
- TGI (NCI-H226 lung): > 100 µM
- GI50 (NCI-H23 lung): 37.7 µM
- TGI (NCI-H23 lung): > 100 µM
- GI50 (NCI-H460 lung): > 100 µM
- TGI (NCI-H460 lung): > 100 µM
- GI50 (NCI-H522 lung): 65.6 µM
- TGI (NCI-H522 lung): > 100 µM
- GI50 (NCI/ADR-RES ovarian): > 100 µM
- TGI (NCI/ADR-RES ovarian): > 100 µM
- GI50 (OVCAR-3 ovarian): 59.9 µM
- TGI (OVCAR-3 ovarian): > 100 µM
- GI50 (OVCAR-4 ovarian): 20.1 µM
- TGI (OVCAR-4 ovarian): > 100 µM
- GI50 (OVCAR-5 ovarian): > 100 µM
- TGI (OVCAR-5 ovarian): > 100 µM
- GI50 (OVCAR-8 ovarian): 48.9 µM
- TGI (OVCAR-8 ovarian): > 100 µM
- GI50 (PC-3 prostate): 71.5 µM
- TGI (PC-3 prostate): > 100 µM
- GI50 (RPMI-8226 leukemia): 36.3 µM
- TGI (RPMI-8226 leukemia): > 100 µM
- GI50 (RXF 393 renal): > 100 µM
- TGI (RXF 393 renal): > 100 µM
- GI50 (SF-268 CNS): > 100 µM
- TGI (SF-268 CNS): > 100 µM
- GI50 (SF-295 CNS): 57 µM
- TGI (SF-295 CNS): > 100 µM
- GI50 (SF-539 CNS): > 100 µM
- TGI (SF-539 CNS): > 100 µM
- GI50 (SK-MEL-2 melanoma): > 100 µM
- TGI (SK-MEL-2 melanoma): > 100 µM
- GI50 (SK-MEL-28 melanoma): 69.2 µM
- TGI (SK-MEL-28 melanoma): > 100 µM
- GI50 (SK-MEL-5 melanoma): 24.9 µM
- TGI (SK-MEL-5 melanoma): > 100 µM
- GI50 (SK-OV-3 ovarian): > 100 µM
- TGI (SK-OV-3 ovarian): > 100 µM
- GI50 (SN12C renal): 35.8 µM
- TGI (SN12C renal): > 100 µM
- GI50 (SNB-19 CNS): 34.5 µM
- TGI (SNB-19 CNS): > 100 µM
- GI50 (SNB-75 CNS): 74.1 µM
- TGI (SNB-75 CNS): > 100 µM
- GI50 (SR leukemia): > 100 µM
- TGI (SR leukemia): > 100 µM
- GI50 (SW-620 colon): > 100 µM
- TGI (SW-620 colon): > 100 µM
- GI50 (T-47D breast): 33 µM
- TGI (T-47D breast): > 100 µM
- GI50 (TK-10 renal): > 100 µM
- TGI (TK-10 renal): > 100 µM
- GI50 (U251 CNS): 47.9 µM
- TGI (U251 CNS): > 100 µM
- GI50 (UACC-257 melanoma): 47.3 µM
- TGI (UACC-257 melanoma): > 100 µM
- GI50 (UACC-62 melanoma): 66.3 µM
- TGI (UACC-62 melanoma): > 100 µM
- GI50 (UO-31 renal): > 100 µM
- TGI (UO-31 renal): > 100 µM
